# Test results reported in patent US20210348107A1, “DEVICE AND SYSTEMS COMPRISING ELECTRODE ARRAYS FOR ELECTROCONDUCTIVE CELLS” (UNIVERSITY OF WASHINGTON, priority 2018, published 2021).
# Tests used:
# CMT2 neurons [1] = assay: Acetylated α-tubulin levels in CMT2 neurons after HDAC6 inhibitor treatment; assay type: cell-based, human; details: data not shown
# Description: Treatment with this compound was also found to improve both the absolute velocity and the total number of moving axonal mitochondria. Decreased acetylated α-tubulin abundance is a characteristic feature of CMT2, and has been directly linked to severe axonal transport deficits in mouse models of the disease. […] The NMJ platform constitutes the ideal model for performing assessment of whether the reported changes result in restoration of WT NMJ phenotypes. Furthermore, the establishment of methods for screening compound action using this platform is translatable to other drug candidates and models of other neuropathic disease states.
# CMT2 neurons [2] = assay: Live cell imaging of mitochondrial transport along axons of CMT2 iPSC motor neurons; assay type: cell-based, human
# Protocol: Mitochondrial transport along axons is evaluated using live cell imaging of cultured neurons. Cells are infected with a lentiviral vector expressing mitochondrially targeted fluorescent probe dsRed (mito-dsRed) permitting real-time assessment of mitochondrial movement. Cells are placed within an environmental chamber mounted on an epifluorescent microscope and mitochondrial movement is recorded for 10 minutes with 3-second time-lapse intervals. Image analysis is performed with ImageJ, and Matlab code can be used, for example, to calculate mitochondrial velocity by measuring the distance between the position of individual mitochondria at the start and end of time-lapse recordings and dividing by the time elapsed. This provides a measure of overall transport velocity that includes anterograde and retrograde movements and stationary periods. Mitochondria are then classified as motile (velocity >0.1 μm s-1) or stationary (velocity ≤0.1 μm s-1), in line with disclosed methods (see e.g., Saporta et al. Experimental neurology. 2015; 263:190-9). Immunostaining is used to quantify mitochondrial density within the developing growth cone of cultured neurons as a means to evaluate the effect of altered transport on presynaptic development. To account for time dependent maturation, neurons are evaluated for all end-points following 1, 2, 3, and 4 weeks in culture. […]
# neurons = details: following spinal cord, head injury, and cerebral ischemia; by blocking excitotoxicity; cited from earlier work
# human cells = details: cited from earlier work
# nerve terminal = details: cited from earlier work
# ALS patients = details: cited from earlier work
compound,measurement,setting,value
CN1CCc2c(c3ccccc3n2Cc2ccc(C(=O)NO)cc2)C1 [Tubastatin A],levels of acetylated α-tubulin,CMT2 neurons [1],significantly improved
same,absolute velocity of moving axonal mitochondria,CMT2 neurons [2],improve
same,total number of moving axonal mitochondria,CMT2 neurons [2],improve
Cc1cccc(C)c1OCC(C)N (centres unmarked) [Mexiletine],protection of neurons,neurons,protective of neurons
O=C(NCCO[N+](=O)[O-])c1cccnc1 [Nicorandil],mitochondrial production of reactive oxygen species (ROS),human cells,limit mitochondrial production of reactive oxygen species
"Nc1ccncc1N [3,4-diaminopyridine]",acetylcholine release from the nerve terminal,nerve terminal,enhances
same,conduction in unmyelinated nerves,nerve terminal,improves
Nc1nc2ccc(OC(F)(F)F)cc2s1 [Riluzole],prolongation of life,ALS patients,prolonging life by a few months
